# Measured values: patent publication US20060189520A1, “Treatment of diabetes” (priority 2002, published 2006)
# “And” between values parts separate entries of the source, which are not always exact repeats. Equal entries are not always repeated.
# Test system: NOD mice with recent-onset diabetes
# Experiment: GLP-1 and gastrin therapy of recent-onset diabetes in NOD mice, fasting blood glucose
# Type: in vivo, mouse
# Conditions: NOD female mice, GLP-1 100 μg/kg/day, gastrin 3 μg/kg/day, i.p. twice a day
# Description: In this example, the effect of treatment by a combination of GLP-1 and gastrin was examined in NOD mice with recent onset diabetes, to determine whether administration of both GLP-1 and gastrin would prevent severe hyperglycemia, ketoacidosis and death as well as increase pancreatic insulin content in NOD mice with recent-onset diabetes. The I.N.T.™ composition used was gastrin as synthetic human gastrin I having 17 amino acid residues with a Leu residue at amino acid position 15. The GLP-1 used was GLP-1 which is the biologically active fragment of human/mouse GLP-1 (having residues at positions 7-36 compared to the precursor from which the fragment is processed; obtained from Bachem H6795).
# Non-obese diabetic (NOD) female mice, ages 12-14 weeks, were monitored for development of onset of diabetes (fasting blood glucose >8.0 to 15 mmol/l), and within 48 hours after onset of symptoms, two groups of mice were each treated as follows: one group was treated with vehicle only; and the other group was administered 100 μg/kg/day of GLP-1, each treatment administered via the intraperitoneal route twice daily.
# Therapy was administered for 14 days. Animals were monitored weekly for fasting blood glucose (FBG) levels. FBG levels were measured at about 12 hours after food had been withdrawn, and 24 hours after the last peptide or vehicle injection. Upon cessation of therapy, all mice were monitored for FBG levels for the next 4 weeks (weeks 2-6) so as to determine whether prevention of hyperglycemia persisted after termination of therapeutic treatment.
# The protocol includes sampling of these mice for data again at 6 weeks, and blood collected for assay of FBG and plasma C-peptide, and the mice are sacrificed for pancreatic insulin determinations and scoring of islet inflammation (insulitis). From the outset of treatment, mice received neither insulin-replacement treatment nor immunosuppression. The following parameters are assessed: survival rates, pancreatic insulin levels, presence of islet inflammation and fasting blood glucose levels.
substance,measurement,setting,value
GLP-1: biologically active fragment of human/mouse GLP-1 (having residues at positions 7-36); obtained from Bachem H6795,FBG (mM) at day: 0,day 0 (start of treatment),12.3 ± 0.9 mM
same,FBG (mM) at day: 7,day 7 of treatment,14.1 ± 1.8 mM
same,FBG (mM) at day: 14,day 14 (end of treatment),15.3 ± 2.6 mM
same,FBG (mM) at day: 18,day 18 (treatment stopped at 14 days),15.8 mM and 15.8 ± 4.2 mM
